Test results: patent publication US6448263B1, “Treatment of insulin resistance with growth hormone secretagogues” (Pfizer Inc., priority 1997, dated 2002)
Counter-ions that a name gives are not always drawn.

Tested on: female Sprague-Dawley rats (Sham and Ovx)
Test: Female Rat Study: chronic oral treatment with a GHRP mimetic, non-fasting plasma insulin and metabolite levels
Type: in vivo
Conditions: non-fasting blood at sacrifice
Procedure: This study evaluates the effect of chronic treatment with a GHRP mimetic on weight, body composition and non-fasting plasma concentrations of glucose, insulin, lactate and lipids in estrogen-deficient and estrogenreplete female rats. Acute responsiveness of serum GH levels to i.v. administration of the GH releasing agent was assessed on the last day of dosing. Body weight was monitored weekly throughout the treatment period; additionally, body composition and plasma levels of glucose, insulin, lactate, cholesterol and triglycerides were assessed at the end of treatment.
Virgin female Sprague-Dawley rats were obtained from Charles River Laboratories (Wilmington, Mass.) and underwent bilateral ovariectomy (Ovx) or sham-surgery (Sham) at approximately 12 weeks of age. For sham surgeries, ovaries were exteriorized and replaced into the abdominal cavity. Following surgery the rats were housed individually in 20 cm×32 cm×20 cm cages under standard vivarium conditions (about 24° C. with about 12 hours light/12 hours dark cycle). All rats were allowed free access to water and a pelleted commercial diet (Agway ProLab 3000, Agway Country Food, Inc., Syracuse, N.Y.). The experiment was conducted in accordance with NIH Guidelines for the Care and Use of Laboratory Animals.
Approximately seven months post-surgery, Sham and Ovx rats were weighed and randomly assigned to groups. Rats were dosed daily by oral gavage with 1 mL of either vehicle (1% ethanol in distilled-deionized water), 0.5 mg/kg or 5 mg/kg of a growth hormone releasing agent for 90 days. Rats were weighed at weekly intervals throughout the study. Twenty-four hours after the last oral dose, the acute response of serum growth hormone (GH) to test agent was assessed by the following procedure. Rats were anesthetized with sodium pentobarbital 50 mg/kg. Anesthetized rats were weighed and a baseline blood sample (˜100 μl) was collected from the tail vein. Test agent (growth hormone releasing agent or vehicle) was then administered intravenously via the tail vein in 1 mL. Approximately ten minutes after injection, a second 100 μl blood sample was collected from the tail. Blood was allowed to clot at about 4° C., then centrifuged at 2000×g for about 10 minutes. Serum was stored at about −70° C. Serum growth hormone concentrations were determined by radioimmunoassay as previously described. Following this procedure, each anesthetized rat underwent whole body scanning by dual-energy X-ray absorptiometry (DEXA, Hologic QDR 1000/W, Waltham Mass.). A final blood sample was collected by cardiac puncture into heparinized tubes. Plasma was separated by centrifugation and stored frozen as described above.
Plasma insulin is determined by radioimmunoassay using a kit from Binax Corp. (Portland, Me.). The interassay coefficient of variation is ≦10%. Plasma triglycerides, total cholesterol, glucose and lactate levels are measured using Abbott VP™ and VP Super System® Autoanalyzer (Abbott Laboratories, Irving, Texas), using the A-Gent™ Triglycerides, Cholesterol and Glucose Test reagent systems, and a lactate kit from Sigma, respectively. The plasma insulin, triglycerides, total cholesterol and lactate lowering activity of a growth hormone releasing peptide (GHRP) or GHRP mimetic such as a compound of formula I, are determined by statistical analysis (unpaired t-test) with the vehicle-treated control group.

[1] = Ovx rats, 0.5 mg/kg daily oral gavage for 90 days
[2] = Ovx rats, 5.0 mg/kg daily oral gavage for 90 days
[3] = Sham rats, 0.5 mg/kg daily oral gavage for 90 days
[4] = Sham rats, 5.0 mg/kg daily oral gavage for 90 days

**Q.** Which results are given for `CN1N=C2CCN(C(=O)[C@@H](COCc3ccccc3)NC(=O)C(C)(C)N)C[C@@]2(Cc2ccccc2)C1=O` [2-amino-N-[2-(3a-(R)-benzyl-2-methyl-3-oxo-2,3,3a,4,6,7-hexahydro-pyrazolo[4,3-c]pyridin-5-yl)-1-(R)-(benzyloxymethyl)-2-oxo-ethyl]-isobutyramide L-tartaric acid salt]?
**A.** Cholesterol (mean plasma level) [1]: 92.5 mg/dL; Glucose (mean plasma level) [1]: 179.7 mg/dL; Insulin (mean plasma level) [1]: *78.7 uU/mL; Lactate (mean plasma level) [1]: 3.6 mg/dL; Triglyceride (mean plasma level) [1]: 181.9 mg/dL; Cholesterol (mean plasma level) [2]: 102.2 mg/dL; Glucose (mean plasma level) [2]: 177.2 mg/dL; Insulin (mean plasma level) [2]: *84.1 uU/mL; Lactate (mean plasma level) [2]: 3.1 mg/dL; Triglyceride (mean plasma level) [2]: 158.4 mg/dL; Cholesterol (mean plasma level) [3]: 95.4 mg/dL; Glucose (mean plasma level) [3]: *142.7 mg/dl; Insulin (mean plasma level) [3]: 94.9 uU/mL; Lactate (mean plasma level) [3]: 3.7 mg/dL; Triglyceride (mean plasma level) [3]: 219.6 mg/dL; Cholesterol (mean plasma level) [4]: *80.6 mg/dl; Glucose (mean plasma level) [4]: *139.9 mg/dl; Insulin (mean plasma level) [4]: 95.7 uU/mL; Lactate (mean plasma level) [4]: *3.2 mg/dl; Triglyceride (mean plasma level) [4]: 227.2 mg/dL
